Measurements taken from US12503452B2 (Curza Global, LLC, priority 2019, dated 2025).
Counter-ions that a name gives are not always drawn. Like-named read-outs stand apart in the source and are kept apart here.

Tests used:
[1] = system: E. coli S30 extract (bacterial protein synthesis); experiment: E. coli S30 extract coupled transcription-translation luciferase assay (inhibition of bacterial protein synthesis); type: biochemical; settings: read-out: S30 IC50 (μM/% inhib.)
Outline: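 Luminescent read-out of luciferase made from pBESTluc DNA by E. coli S30 extract after 1 h at 37 °C with compound in an 8-point 2-fold series. Background came from no-DNA reactions. Percent inhibition was calculated against water-only controls.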

E. coli (Ec) = experiment: Broth microdilution minimum inhibitory concentration (MIC); type: cell-based; settings: Escherichia coli, read-out: E. coli + bicarb MIC
Outline: (§1)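 MICs were run in triplicate per CLSI microdilution (modified, 8 dilution steps), inoculating 5×10^4 CFU/well prepared from colonies grown at 35±2° C to 0.5 McFarland. Media: CAMHB alone, with 6.25 or 25 mM final sodium bicarbonate, or with 0–50% heat-inactivated human serum.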

P. aeruginosa (Pa) = experiment: as above; type: cell-based; settings: Pseudomonas aeruginosa, read-out: Pa MIC + bicarb
Outline: as §1

S. aureus (Sa) = experiment: as above; type: cell-based; settings: Staphylococcus aureus, read-out: Sa + bicarb MIC
Outline: as §1

A. baumannii (Ab) = experiment: as above; type: cell-based; settings: Acinetobacter baumannii, read-out: Ab + bicarb MIC
Outline: as §1

E. faecalis (Ef) = experiment: as above; type: cell-based; settings: Enterococcus faecalis, read-out: Ef + bicarb MIC
Outline: as §1

[2] = target: Rabbit Reticulocyte Lysate (eukaryotic protein synthesis); experiment: Rabbit reticulocyte lysate luciferase assay (inhibition of eukaryotic protein synthesis); type: biochemical; settings: read-out: Rabbit reticulocyte IC50 (μM/% inhib.)
Outline: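 Compounds were tested in 8-point 2-fold dilution series for blocking luciferase synthesis in nuclease-treated rabbit reticulocyte lysate (30° C., 90 minutes). Luminescence read-out, corrected by no-RNA background, was expressed as % inhibition against water-only reactions.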

[3] = class by IC50 or % inhibition @ 1 μM
[4] = E. coli, growth medium with sodium bicarbonate
[5] = P. aeruginosa, growth medium with sodium bicarbonate
[6] = S. aureus, growth medium with sodium bicarbonate
[7] = A. baumannii, growth medium with sodium bicarbonate
[8] = E. faecalis, growth medium with sodium bicarbonate
[9] = E. coli, growth medium supplemented with sodium bicarbonate
[10] = P. aeruginosa, growth medium supplemented with sodium bicarbonate
[11] = S. aureus, growth medium supplemented with sodium bicarbonate
[12] = A. baumannii, growth medium supplemented with sodium bicarbonate
[13] = E. faecalis, growth medium supplemented with sodium bicarbonate

SMILES | IC50 [1, 3] | MIC (E. coli (Ec); [4]) | MIC (P. aeruginosa (Pa); [5]) | MIC (S. aureus (Sa); [6]) | MIC (A. baumannii (Ab); [7]) | MIC (E. faecalis (Ef); [8]) | IC50 [2, 3] | MIC (E. coli (Ec); [9]) | MIC (P. aeruginosa (Pa); [10]) | MIC (S. aureus (Sa); [11]) | MIC (A. baumannii (Ab); [12]) | MIC (E. faecalis (Ef); [13]) | MIC (E. coli (Ec)) | MIC (P. aeruginosa (Pa)) | MIC (S. aureus (Sa)) | MIC (A. baumannii (Ab)) | MIC (E. faecalis (Ef)) | IC50 ([1]; % inhibition @ 1 μM) | IC50 ([2]; % inhibition @ 1 μM)
C[C@](N)(CO)C(=O)N1CCN(C(=O)Nc2ccn(-c3ccc(CN(CC4CC4)C4CCC(N)CC4)cc3)c(=O)n2)CC1 (stereo partly shown) [Compound 277] | < 0.5 µM | < 8 µg/mL | > 32 µg/mL | < 8 µg/mL | > 32 µg/mL | < 8 µg/mL | > 1 µM | – | – | – | – | – | – | – | – | – | – | – | –
CC(CN1CCC[C@H](N)CC1)c1ccc(-n2ccc(NC(=O)N3CCN(C(=O)C(C)(C)N)CC3)nc2=O)cc1 (stereo partly shown) [Compound 290] | 0.5 to 1 µM | < 8 µg/mL | > 32 µg/mL | < 8 µg/mL | < 8 µg/mL | < 8 µg/mL | > 1 µM | – | – | – | – | – | – | – | – | – | – | – | –
C[C@@](N)(CO)C(=O)N1CCN(C(=O)Nc2ccn(-c3ccc(CCN4CCCC(N)CC4)cc3)c(=O)n2)CC1 (stereo partly shown) [Compound 35] | > 1 µM | – | – | – | – | – | > 1 µM | < 8 µg/mL | 8 to 32 µg/mL | < 8 µg/mL | > 32 µg/mL | < 8 µg/mL | – | – | – | – | – | – | –
CC(C)(N)C(N1CCN(C(=O)Nc2ccn(-c3ccc(CN4CCC(N)CC4)cc3)c(=O)n2)CC1)C(F)(F)F (stereo not shown) [Compound 291, hydrochloride salt] | > 1 µM | – | – | – | – | – | > 1 µM | – | – | – | – | – | 8 to 32 µg/mL | > 32 µg/mL | < 8 µg/mL | 8 to 32 µg/mL | 8 to 32 µg/mL | – | –
CC(C)(N)C(=O)N1CCN(C(=O)Nc2ccn(-c3ccc(C[C@@H](N)C(=O)N4CCCC(N)CC4)cc3)c(=O)n2)CC1 (stereo partly shown) [Compound 143] | > 1 µM | – | – | – | – | – | > 1 µM | > 32 µg/mL | > 32 µg/mL | > 32 µg/mL | > 32 µg/mL | > 32 µg/mL | – | – | – | – | – | – | –
CC(C)(N)C(=O)N1CCN(C(=O)Nc2ccn(-c3ccc(CCN4CCCC(NC5CC5)CC4)cc3)c(=O)n2)CC1 (stereo not shown) [Compound 29] | > 1 µM | – | – | – | – | – | > 1 µM | < 8 µg/mL | > 32 µg/mL | 8 to 32 µg/mL | > 32 µg/mL | > 32 µg/mL | – | – | – | – | – | – | –
CC(Cc1ccc(-n2ccc(NC(=O)N3CCN(C(=O)C(C)(C)N)CC3)nc2=O)cc1)N[C@H]1CC[C@H](N)C1 (stereo partly shown) [Compound 162] | < 0.5 µM | – | – | – | – | – | > 1 µM | < 8 µg/mL | > 32 µg/mL | < 8 µg/mL | > 32 µg/mL | 8 to 32 µg/mL | – | – | – | – | – | – | –
CNC1CCC(N(Cc2ccc(-n3ccc(NC(=O)N4CCN(C(=O)C(C)(C)N)CC4)nc3=O)cc2)CC2CC2)CC1 (stereo not shown) [Compound 301, hydrochloride salt] | 0.5 to 1 µM | – | – | – | – | – | > 1 µM | – | – | – | – | – | < 8 µg/mL | > 32 µg/mL | < 8 µg/mL | 8 to 32 µg/mL | < 8 µg/mL | – | –
CC1CN(Cc2ccc(-n3ccc(NC(=O)N4CCN(C(=O)C(C)(C)N)CC4)nc3=O)cc2)CCC1N (stereo not shown) [Compound 251] | < 0.5 µM | < 8 µg/mL | > 32 µg/mL | < 8 µg/mL | > 32 µg/mL | < 8 µg/mL | > 1 µM | – | – | – | – | – | – | – | – | – | – | – | –
CC(C)(N)C(=O)N1CCN(C(=O)Nc2ccn(-c3ccc(CN4CC(C5CCNCC5)C4)cc3)c(=O)n2)CC1 [Compound 377] | – | < 8 µg/mL | > 32 µg/mL | < 8 µg/mL | > 32 µg/mL | > 32 µg/mL | – | – | – | – | – | – | – | – | – | – | – | < 0.5 µM | > 1 µM
CCN(C(C)Cc1ccc(-n2ccc(NC(=O)N3CCN(C(=O)C(C)(C)N)CC3)nc2=O)cc1)[C@H]1CC[C@@H](N)C1 (stereo partly shown) [Compound 151] | < 0.5 µM | – | – | – | – | – | > 1 µM | < 8 µg/mL | 8 to 32 µg/mL | < 8 µg/mL | > 32 µg/mL | < 8 µg/mL | – | – | – | – | – | – | –
CC(C)CN(Cc1ccc(-n2ccc(NC(=O)N3CCN(C(=O)C(C)(C)N)CC3)nc2=O)cc1)[C@H]1CC[C@H](N)CC1 [Compound 129] | < 0.5 µM | – | – | – | – | – | > 1 µM | < 8 µg/mL | 8 to 32 µg/mL | < 8 µg/mL | < 8 µg/mL | < 8 µg/mL | – | – | – | – | – | – | –
NC1CCCN(CCc2ccc(-n3ccc(NC(=O)N4CCN(C(=O)C5CCCN5)CC4)nc3=O)cc2)CC1 (stereo not shown) [Compound 310, hydrochloride salt] | 0.5 to 1 µM | – | – | – | – | – | > 1 µM | – | – | – | – | – | < 8 µg/mL | > 32 µg/mL | 8 to 32 µg/mL | > 32 µg/mL | > 32 µg/mL | – | –
